Laboratory results taken from patent US5840696A (priority 1997, dated 1998).

What was measured:
[1] = biological target: T1, central kappa-opioid receptors (Rattus norvegicus, UniProt P34975); assay: renal responses to i.c.v. peptide in rats pre-treated i.c.v. with nor-binaltorphimine; type: in vivo; settings: peptide 10 μg i.c.v.; nor-binaltorphimine 1 μg i.c.v.
T1 construct: Anesthetized male Sprague-Dawley rats; from tissue; host or cells: central nervous system of conscious male Sprague-Dawley rats (in vivo, lateral cerebral ventricle injection)
T1 sequence (P34975 whole entry): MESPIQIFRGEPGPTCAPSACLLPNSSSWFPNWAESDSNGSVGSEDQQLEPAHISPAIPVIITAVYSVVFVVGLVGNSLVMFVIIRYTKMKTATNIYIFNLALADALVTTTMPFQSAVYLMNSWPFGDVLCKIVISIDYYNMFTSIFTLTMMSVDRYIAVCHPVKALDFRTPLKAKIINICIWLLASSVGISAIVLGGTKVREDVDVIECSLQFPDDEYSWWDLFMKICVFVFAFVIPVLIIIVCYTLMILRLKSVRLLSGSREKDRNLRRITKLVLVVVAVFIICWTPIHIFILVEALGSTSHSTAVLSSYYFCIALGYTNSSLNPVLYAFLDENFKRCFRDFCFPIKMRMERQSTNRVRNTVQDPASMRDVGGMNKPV
From the text: Abbreviations are V, urine flow rate and UNa V, urinary sodium excretion.
For comparative purposes, the renal responses produced by central administration of the endogenous opioid peptide, dynorphin A, were also studied i.c.v.
Anesthetized male Sprague-Dawley rats (275-300 g, Sprague-Dawley, Inc., Indianapolis, Ind.) were implanted with chronic arterial and venous cannulas and a bladder catheter in accordance with previously published methods (10, 12). For experiments in which drugs were administered i.c.v., a stainless steel cannula was stereotaxically implanted into the right lateral ventricle of rats under anesthesia at least 5-7 days prior to experimentation (11). On the morning of the study rats were placed in a rat holder which permits forward and backward movement and allows for collection of urine from the bladder catheter. Conscious rats were then infused i.v. with isotonic saline (50 μl/min) for the duration of the experiment. The arterial cannulae was then flushed and attached to a pressure transducer (Statham P23Db) and the urinary bladder catheter led to a collection beaker. After equilibration and stabilization of urine flow rate and urinary sodium excretion (approximately 2-3 hours) the experimental protocol described in each figure legend commenced. […]

[2] = tested on: intact-chest, anesthetized rats; assay: bolus injection into right atrium versus left atrium, systemic arterial pressure (first-pass lung transit); type: in vivo, rat; settings: inferred from right versus left atrial injection
From the text: Such a hemodynamic profile would be particularly desireable in patients experiencing congestive heart failure since pulmonary vasodilation would be expected to enhance resolution of pulmonary edema and systemic vasodilation (i.e. afterload reduction) would be expected to enhance myocardial performance.

[3] = tested on: conscious and pentobarbital-anesthetized rats; assay: influence of pentobarbital anesthesia on renal and vascular effects of nociceptin; type: in vivo, rat
From the text: N=number of rats. *≤0.05 significant when compared using ANOVA.
N=number of animals. *≤0.05 when ANOVA used statistical comparison.

pulmonary vascular bed = pulmonary vascular bed of the intact-chest anesthetized rat under elevated pulmonary vasomotor tone; type: in vivo; settings: intralobar arterial bolus injections
Experimental: Since pulmonary blood flow and left atrial pressure were held constant, the decreases in pulmonary artery pressure directly reflect decreases in pulmonary vascular resistance. N=number of animals.
Male Charles River rats (260-340 go) were anesthetized with an intraperitoneal injection of pentobarbital sodium (30 mg/kg), and allowed to breath air enriched with oxygen through an endotracheal tube inserted by tracheotomy. The anesthetized animals were strapped in a supine position to a fluoroscopic table, and catheters were inserted in femoral blood vessels. A specially designed triple lumen balloon perfusion catheter was constructed (Nu-Med, Hopkinton, N.Y.). This catheter is 145 mm in length, […]. and with specially curved tip to facilitate passage through the right heart and main pulmonary artery into the artery supplying the right lower lung lobe. At the distal tip of the catheter is a pressure port through which a 0.25 mm soft tip coronary artery angioplasty guide wire is inserted. […] Mean pressure in the right lower lobe artery and the aorta were continuously recorded. […] Since this catheter perfuses approximately one-sixth of the lung, as determined by measuring lung weight, this perfusion rate approximate physiologic flow for that lung area, i.e. at least 15-20% of the 75-85 ml/min normal total pulmonary blood flow of the rat. […]

[4] = tested on: systemic vascular bed of the anesthetized rat; assay: systemic vasodepressor response to bolus i.v. nociceptin in the anesthetized rat; type: in vivo
Experimental: N=number of animals. *p<0.05 when compared to corresponding control value.
Male rats (250-300 g) were anesthetized with pentobarbital sodium (30 mg/kg i.p.). Catheters were placed into a femoral artery and femoral vein for measurement of systemic […] blood pressure and administration of drugs, respectively. Cardiac output was calculated by using Columbus 2F thermodilution catheter placed fluoroscopically in the ascending aortic arch assess changes in temperature following a thermal reference injection of saline (0.2 ml) at room temperature into the right atrium via a jugular venous catheter. Changes in systemic arterial pressure were measured using a Gould P23Id pressure transducer and recorded on a Grass Model 7A recorder. Cardiac output was determined using a Columbus Cardiomax thermodilution cardiac output computer.
Values are means +/-SE; N=6. *p,0.05 compared with corresponding control (paired t test).

conscious rats = assay: lower-dose i.v. infusion of nociceptin (50 and 166 nanog/Kg/min) in conscious rats, renal function; type: in vivo, rat
From the text: These marked increases in urine flow rate occurred at doses approximately 120 fold lower than previously reported by Kapusta et al. (17). In order to confirm these more recent and complete studies of the present invention, nociceptin was obtained from three commercially available sources, Phoenix Pharmaceutical, Bachem Chemical and Peninsula Laboratories. […] Nociceptin from each of the sources above was studied at a single infusion rate in each group of six rats. […] These increases in urine flow were accompanied by a decrease in the excretion of urinary sodium (UNA V) as reported earlier (17).

[5] = tested on: forskolin-stimulated cAMP production; settings: literature (4,5); cited from earlier work
[6] = 0.3 ug, i.v. bolus, mean +/- SE, N=6
[7] = 1.0 ug, i.v. bolus, mean +/- SE, N=6
[8] = 3.0 ug, i.v. bolus, mean +/- SE, N=6
[9] = i.v. infusion 50 and 166 nanog/Kg/min

## CC(C)C[C@H](NC(=O)[C@H](CCCCN)NC(=O)[C@H](CCCN=C(N)N)NC(=O)[C@H](C)NC(=O)[C@H](CO)NC(=O)[C@H](CCCCN)NC(=O)[C@H](CCCN=C(N)N)NC(=O)[C@H](C)NC(=O)CNC(=O)[C@@H](NC(=O)[C@H](Cc1ccccc1)NC(=O)CNC(=O)CNC(=O)[C@@H](N)Cc1ccccc1)[C@@H](C)O)C(=O)N[C@@H](C)C(=O)N[C@@H](CC(N)=O)C(=O)N[C@@H](CCC(N)=O)C(=O)O [nociceptin]
[1]
  effect of i.c.v. nor-binaltorphimine pretreatment on the diuresis and antinatriuresis produced by the peptide: did not alter
[2]
  first-pass uptake or metabolism in the lung: does not undergo significant first-pass uptake or metabolism
[3]; bolus i.v. injection
  systemic vasodepressor activity, anesthetized versus conscious rats: greater systemic vasodepressor activity
[3]; rats anesthetized with sodium pentobarbital, i.v. infusion
  ability to increase urinary flow rate (V) under anesthesia: inhibited
Pulmonary vascular bed
  pulmonary vasodilator response after L-NAME and L-NIO: inhibit
Pulmonary vascular bed; tone elevated with U46619
  effect on the pulmonary vascular bed: dilates the pulmonary vascular bed
[4]; [6]
  Cardiac Output: 111.3 ± 49.6 mL/min
  Systemic Arterial Pressure: 150.0 +/- 15.5 mmHg
  Systemic Vascular Resistance: 1.1 +/- 0.1 mmHg/ml/min
[4]; [7]
  Cardiac Output: 102.8 ± 4.5 mL/min
  Systemic Arterial Pressure: 141.0 +/- 17.8 mmHg
  Systemic Vascular Resistance: 1.1 +/- 0.2 mmHg/ml/min
[4]; [8]
  Cardiac Output: 96.8 ± 34.4 mL/min
  Systemic Arterial Pressure: 109.6 +/- 19.8 mmHg
  Systemic Vascular Resistance: 0.8 +/- 0.1 mmHg/ml/min
[4]; 45 min after L-NAME or L-NIO
  systemic vasodepressor response after L-NAME or L-NIO: significantly inhibited
[4]; bolus i.v. doses
  Cardiac Output: did not significantly alter cardiac output
[4]; bolus i.v. injections, anesthetized rats
  systemic vasodepressor response after glybenclamide and meclofenamate: not inhibited
[4]; bolus i.v. injections, pentobarbital-anesthetized rats
  Systemic Arterial Pressure: decreased systemic arterial pressure in a dose-dependant manner
Conscious rats; i.v. infusion
  doses producing increases in urine flow rate, lower than in preliminary studies / Kapusta et al. (17): approximately 120 fold
Conscious rats; [9]
  baseline systemic arterial pressure and heart rate: did not alter baseline systemic arterial pressure and heart rate
  duration of renal responses: approximately 90 min
  excretion of urinary sodium (UNA V): decrease
  time of peak renal effect after start of infusion: 30 min
Conscious rats; i.v. infusion 50 and 166 nanog/Kg/min, conscious rats
  urine flow rate (V): dose-dependent increase
[5]
  forskolin-stimulated cAMP production: inhibits forskolin-stimulated cAMP production
